The text below walks through data of US8450361B2, “Substituted indole and azaindole oxoacetyl piperazinamide derivatives” (priority 2010, dated 2013).

This assay relates to HIV-1. Briefly: Single-round infectious HIV-1 luciferase reporter virus infection of HeLa CD4 cells. It is filed as cell-based. The following applies: Human immunodeficiency virus 1, HeLa, 72 h, read-out: EC50 Group from Table 1. The procedure: • Virus production—Human embryonic Kidney cell line, 293T, was propagated in Dulbecco's Modified Eagle Medium (Invitrogen, Carlsbad, Calif.) containing 10% fetal Bovine serum (FBS, Sigma, St. Louis, Mo.). • Virus infection—Human epithelial cell line, HeLa, expressing the HIV-1 receptor CD4 was propagated in Dulbecco's Modified Eagle Medium (Invitrogen, Carlsbad, Calif.) containing 10% fetal Bovine serum (FBS, Sigma, St. Louis, Mo.) and supplemented with 0.2 mg/mL Geneticin (Invitrogen, Carlsbad, Calif.). Virus—Single-round infectious reporter virus was produced by co-transfecting human embryonic Kidney 293 cells with an HIV-1 envelope DNA expression vector and a proviral cDNA containing an envelope deletion mutation and the luciferase reporter gene inserted in place of HIV-1 nef sequences (Chen et al, Ref 41). Transfections were performed using lipofectAMINE PLUS reagent as described by the manufacturer (Invitrogen, Carlsbad, Calif.). Experiment • 1. HeLa CD4 cells were plated in 96 well plates at a cell density of 1×10^4 cells per well in 100 μl Dulbecco's Modified Eagle Medium containing 10% fetal Bovine serum and incubated overnight. • 2. Compound was added in a 2 μl dimethylsulfoxide solution, so that the final assay concentration would be ≦10 μM. • 3. 100 μl of single-round infectious reporter virus in Dulbecco's Modified Eagle Medium was then added to the plated cells and compound at an approximate multiplicity of infection (MOI) of 0.01, resulting in a final volume of 200 μl per well. • 4. Virally-infected cells were incubated at 37 degrees Celsius, in a CO2 incubator, and harvested 72 h after infection. • 5. Viral infection was monitored by measuring luciferase expression from viral DNA in the infected cells using a luciferase reporter gene assay kit, as described by the manufacturer (Roche Molecular Biochemicals, Indianapolis, Ind.). Infected cell supernatants were removed and 50 μl of lysis buffer was added per well. After 15 minutes, 50 μl of freshly-reconstituted luciferase assay reagent was added per well. Luciferase activity was then quantified by measuring luminescence using a Wallac microbeta scintillation counter. • 6. The percent inhibition for each compound was calculated by quantifying the level of luciferase expression in cells infected in the presence of each compound as a percentage of that observed for cells infected in the absence of compound and subtracting such a determined value from 100. • 7. An EC50 provides a method for comparing the antiviral potency of the compounds of this invention. The effective concentration for fifty percent inhibition (EC50) was calculated with the Microsoft Excel Xlfit curve fitting software. For each compound, curves were generated from percent inhibition calculated at 10 different concentrations by using a four parameter logistic model (model 205). Table 1 is the key for the data in Table 2. Results
A general note: In a reporter assay the amount or activity of a reporter protein is the signal.

In the case of `CCOC(=O)CNC(=O)Nc1cccc2c(C(=O)C(=O)N3CCN(C(=O)c4ccccc4)C[C@H]3C)c[nH]c12` [P-C-1], the half-maximal effective concentration (EC50) (commonly the midpoint of the concentration-response curve) is less than 1000 nM. For `CCOC(=O)CCCCCNC(=O)Nc1cccc2c(C(=O)C(=O)N3CCC(=C(C#N)c4ccccc4)CC3)c[nH]c12` [P-C-8], the concentration for a half-maximal effect (EC50) is less than 1000 nM. Next, `C[C@@H]1CN(C(=O)c2ccccc2)CCN1C(=O)C(=O)c1c[nH]c2c(NC(=O)Nc3ccc(S(=O)(=O)O)cc3)cccc12` [P-C-19]: less than 1000 nM; `C[C@@H]1CN(C(=O)c2ccccc2)CCN1C(=O)C(=O)c1c[nH]c2c(NC(=O)NCCOCCOCCNC(=O)c3cccc(B(O)O)c3)cccc12` [P-C-401]: less than 1000 nM; `CCOC(=O)c1ccccc1NC(=O)Nc1cccc2c(C(=O)C(=O)N3CCN(C(=O)c4ccccc4)C[C@H]3C)c[nH]c12` [P-C-10]: less than 1000 nM.

`COC(=O)[C@H]1OC(C)(C)O[C@@H]1C(=O)Nc1cccc2c(C(=O)C(=O)N3CCN(C(=O)c4ccccc4)C[C@H]3C)c[nH]c12` [P-A-13]: the EC50 is less than 1000 nM. Next, `C[C@@H]1CN(C(=O)c2ccccc2)CCN1C(=O)C(=O)c1c[nH]c2c(NC(=O)NCCCCCCCCNC(=O)Nc3cccc(B(O)O)c3)cccc12` [P-C-114]: less than 1000 nM. Consider `COC(=O)CCCNC(=O)Nc1cccc2c(C(=O)C(=O)N3CCN(C(=O)c4ccccc4)C[C@H]3C)c[nH]c12` [P-C-4], for which the 50% effective concentration (EC50) is less than 1000 nM.

As for `C[C@@H]1CN(C(=O)c2ccccc2)CCN1C(=O)C(=O)c1c[nH]c2c(NC(=O)NCCOCCOCCN)cccc12` [P-C-205], the EC50 is less than 1000 nM.

As for `CCOC(=O)CCCNC(=O)Nc1ncc(F)c2c(C(=O)C(=O)N3CCN(C(=O)c4ccccc4)CC3)c[nH]c12` [P-C-26], the concentration giving a half-maximal response (EC50) was less than 1000 nM.

For `CCOC(=O)CCNC(=O)Nc1cccc2c(C(=O)C(=O)N3CCC(=C(C#N)c4ccccc4)CC3)c[nH]c12` [P-C-3], the EC50 is less than 1000 nM.

With `C[C@@H]1CN(C(=O)c2ccccc2)CCN1C(=O)C(=O)c1c[nH]c2c(NC(=O)Nc3cccc(B(O)O)c3)cccc12` [P-C-202], the EC50 is less than 1000 nM. The figure for `CCOC(=O)c1cccc(NC(=O)Nc2cccc3c(C(=O)C(=O)N4CCC(=C(C#N)c5ccccc5)CC4)c[nH]c23)c1` [P-C-13] is less than 1000 nM. Next, `C[C@@H]1CN(C(=O)c2ccccc2)CCN1C(=O)C(=O)c1c[nH]c2c(NC(=O)Nc3ccc(C#N)cc3)cccc12` [P-C-22]: less than 1000 nM; `Cc1ccc(S(=O)(=O)Nc2cccc3c(C(=O)C(=O)N4CCN(C(=O)c5ccccc5)C[C@H]4C)cn(S(=O)(=O)c4ccc(C)cc4)c23)cc1` [P-E-4]: less than 1000 nM; `CCOC(=O)c1ccccc1NC(=O)Nc1cccc2c(C(=O)C(=O)N3CCC(=C(C#N)c4ccccc4)CC3)c[nH]c12` [P-C-11]: less than 1000 nM. The figure for `CC/N=C(\NCCCN(C)C)Nc1cccc2c(C(=O)C(=O)N3CCN(C(=O)c4ccccc4)C[C@H]3C)c[nH]c12` [P-F-2] is less than 1000 nM; for `C[C@@H]1CN(C(=O)c2ccccc2)CCN1C(=O)C(=O)c1c[nH]c2c(NC(=O)[C@H]3OC(C)(C)O[C@@H]3C(=O)O)cccc12` [P-A-14] it is less than 1000 nM. Consider `C[C@@H]1CN(C(=O)c2ccccc2)CCN1C(=O)C(=O)c1c[nH]c2c(NC(=O)C3OC3C(=O)O)cccc12` (some centres unmarked) [P-A-10], for which the EC50 was less than 1000 nM. As to `CC(C)/N=C(/Nc1cccc2c(C(=O)C(=O)N3CCN(C(=O)c4ccccc4)C[C@H]3C)c[nH]c12)NC(C)C` [P-F-1], the 50% effective concentration (EC50) is less than 1000 nM.

For `CC(=O)OCC(=O)Nc1cccc2c(C(=O)C(=O)N3CCN(C(=O)c4ccccc4)C[C@H]3C)c[nH]c12` [P-A-4], the EC50 was less than 1000 nM.

Take `C[C@@H]1CN(C(=O)c2ccccc2)CCN1C(=O)C(=O)c1c[nH]c2c(NC(=O)/C=C/C(=O)O)cccc12` [P-A-9]: the EC50 is less than 1000 nM. Next, `CC(=O)Nc1ccc(F)c2c(C(=O)C(=O)N3CCC(=C(C#N)c4ccccn4)CC3)c[nH]c12` [P-B-1]: less than 1000 nM; `COC(=O)c1cc(NC(=O)Nc2cccc3c(C(=O)C(=O)N4CCN(C(=O)c5ccccc5)C[C@H]4C)c[nH]c23)cc(C(=O)OC)c1` [P-C-16]: less than 1000 nM; `N#CC(=C1CCN(C(=O)C(=O)c2c[nH]c3c(NC(=O)Nc4ccc(S(=O)(=O)O)cc4)cccc23)CC1)c1ccccc1` [P-C-20]: less than 1000 nM.

As to `Cc1ccc(S(=O)(=O)Nc2cccc3c(C(=O)C(=O)N4CCN(C(=O)c5ccccc5)C[C@H]4C)c[nH]c23)cc1` [P-E-3], the EC50 fell in the range of 1000 to 5000 nM. Next, `C[C@@H]1CN(C(=O)c2ccccc2)CCN1C(=O)C(=O)c1c[nH]c2c(NC(=O)NCCCCNC(=O)Nc3ccc(B(O)O)cc3)cccc12` [P-C-103]: less than 1000 nM. Next, `COC(=O)[C@@H]1OC(C)(C)O[C@H]1C(=O)Nc1cccc2c(C(=O)C(=O)N3CCN(C(=O)c4ccccc4)C[C@H]3C)c[nH]c12` [P-A-15]: less than 1000 nM; `N#CC(=C1CCN(C(=O)C(=O)c2c[nH]c3c(NC(=O)Nc4cccc(C(=O)O)c4)cccc23)CC1)c1ccccc1` [P-I-12]: less than 1000 nM.

As for `CC(=O)Nc1ccc(F)c2c(C(=O)C(=O)N3CCC(=C(C#N)c4cccnc4)CC3)c[nH]c12` [P-B-5], the half-maximal effective concentration (EC50) is less than 1000 nM. The figure for `C[C@@H]1CN(C(=O)c2ccccc2)CCN1C(=O)C(=O)c1c[nH]c2c(NC(=O)NC3CCN(C(=O)C(F)(F)F)CC3)cccc12` [P-C-24] is less than 1000 nM; for `N#CC(=C1CCN(C(=O)C(=O)c2c[nH]c3c(N4C(=O)N[C@@H](CCC(=O)O)C4=O)cccc23)CC1)c1ccccc1` [P-I-17] it is less than 1000 nM; for `COC(=O)c1ccccc1NC(=O)Nc1cccc2c(C(=O)C(=O)N3CCN(C(=O)c4ccccc4)C[C@H]3C)c[nH]c12` [P-C-9] it is less than 1000 nM. The figure for `C[C@@H]1CN(C(=O)c2ccccc2)CCN1C(=O)C(=O)c1c[nH]c2c(NC(=O)NCCCCCCNC(=O)NCCOCCOCCN)cccc12` [P-C-111] is less than 1000 nM. As to `N#CC(=C1CCN(C(=O)C(=O)c2c[nH]c3c(NC(=O)NCCCC(=O)O)cccc23)CC1)c1ccccc1` [P-I-5], the half-maximal effective concentration (EC50) was less than 1000 nM. The figure for `C[C@@H]1CN(C(=O)c2ccccc2)CCN1C(=O)C(=O)c1c[nH]c2c(NC(=O)c3cccc(B(O)O)c3)cccc12` [P-A-22] is less than 1000 nM; for `COS(=O)(=O)c1ccc(NC(=O)Nc2cccc3c(C(=O)C(=O)N4CCC(=C(C#N)c5ccccc5)CC4)c[nH]c23)cc1` [P-C-18] it is less than 1000 nM; for `C[C@@H]1CN(C(=O)c2ccccc2)CCN1C(=O)C(=O)c1c[nH]c2c(NC(=O)c3ccc(B(O)O)cc3)cccc12` [P-A-23] it is less than 1000 nM. Next, `CCN(CC)S(=O)(=O)c1ccc(NC(=O)Nc2cccc3c(C(=O)C(=O)N4CCC(=C(C#N)c5ccccc5)CC4)c[nH]c23)cc1` [P-C-21]: less than 1000 nM; `CC(=O)Nc1ccc(F)c2c(C(=O)C(=O)N3CCN(C(=O)c4ccccc4)CC3)c[nH]c12` [P-B-2]: less than 1000 nM.

Consider `C[C@@H]1CN(C(=O)c2ccccc2)CCN1C(=O)C(=O)c1c[nH]c2c(NC(=O)Nc3cccc(C(=O)O)c3)cccc12` [P-I-11], for which the EC50 was less than 1000 nM. Next, `C[C@@H]1CN(C(=O)c2ccccc2)CCN1C(=O)C(=O)c1c[nH]c2c(NC(=O)Nc3cc(C(=O)O)cc(C(=O)O)c3)cccc12` [P-I-14]: less than 1000 nM; `N#CC(=C1CCN(C(=O)C(=O)c2c[nH]c3c(NC(=O)NCCCCCC(=O)O)cccc23)CC1)c1ccccc1` [P-I-7]: less than 1000 nM. The figure for `CCOC(=O)CCNC(=O)Nc1cccc2c(C(=O)C(=O)N3CCN(C(=O)c4ccccc4)C[C@H]3C)c[nH]c12` [P-C-2] is less than 1000 nM.

As to `C[C@@H]1CN(C(=O)c2ccccc2)CCN1C(=O)C(=O)c1c[nH]c2c(NC(=O)c3ccno3)cccc12` [P-A-21], the EC50 is less than 1000 nM. For `C[C@@H]1CN(C(=O)c2ccccc2)CCN1C(=O)C(=O)c1c[nH]c2c(NC(=O)NCCCCCC(=O)O)cccc12` [P-I-6], the EC50 was less than 1000 nM. For the molecule `C[C@@H]1CN(C(=O)c2ccccc2)CCN1C(=O)C(=O)c1c[nH]c2c(NC(=O)NCCC(=O)O)cccc12` [P-I-2], the 50% effective concentration (EC50) was less than 1000 nM. As to `N#CC(=C1CCN(C(=O)C(=O)c2c[nH]c3c(NC(=O)NCCC(=O)O)cccc23)CC1)c1ccccc1` [P-I-3], the half-maximal effective concentration (EC50) is less than 1000 nM. The figure for `C[C@@H]1CN(C(=O)c2ccccc2)CCN1C(=O)C(=O)c1c[nH]c2c(N3CCN(CCCl)C3=O)cccc12` [P-G-1] is less than 1000 nM; for `CC(=O)Nc1ccc(F)c2c(C(=O)C(=O)N3CC/C(=C(\C#N)c4ccccc4)CC3C)c[nH]c12` (centres unmarked) [P-B-3] it is less than 1000 nM.
